This test addresses Serine/threonine-protein kinase B-raf [V600E] (Homo sapiens, UniProt P15056, V600E). Nature of the test: In Vitro Raf Activity.
Serine/threonine-protein kinase B-raf [V600E], sequence (P15056 2-766 V600E limits assumed): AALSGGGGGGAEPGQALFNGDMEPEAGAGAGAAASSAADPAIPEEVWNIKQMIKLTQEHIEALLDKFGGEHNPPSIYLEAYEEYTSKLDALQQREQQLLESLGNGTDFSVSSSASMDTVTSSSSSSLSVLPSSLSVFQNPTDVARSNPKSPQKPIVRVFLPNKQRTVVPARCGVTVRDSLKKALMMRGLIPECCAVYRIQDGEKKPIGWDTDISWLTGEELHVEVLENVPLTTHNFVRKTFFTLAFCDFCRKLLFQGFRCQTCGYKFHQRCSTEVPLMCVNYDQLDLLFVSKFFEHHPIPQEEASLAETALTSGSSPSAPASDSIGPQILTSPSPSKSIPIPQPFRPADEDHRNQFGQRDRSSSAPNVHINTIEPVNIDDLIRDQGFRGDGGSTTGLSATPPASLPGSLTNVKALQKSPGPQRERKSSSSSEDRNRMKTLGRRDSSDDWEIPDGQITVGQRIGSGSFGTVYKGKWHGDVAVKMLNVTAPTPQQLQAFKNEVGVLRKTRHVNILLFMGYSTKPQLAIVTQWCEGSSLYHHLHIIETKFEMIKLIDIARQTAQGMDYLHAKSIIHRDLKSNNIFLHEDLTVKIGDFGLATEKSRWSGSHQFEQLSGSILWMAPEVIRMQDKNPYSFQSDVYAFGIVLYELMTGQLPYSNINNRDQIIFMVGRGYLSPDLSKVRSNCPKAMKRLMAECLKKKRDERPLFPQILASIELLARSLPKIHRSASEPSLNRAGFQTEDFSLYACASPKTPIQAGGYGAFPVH
Method: The plate was incubated for 60 minutes at room temperature. […] The additions were carried out under dark conditions to protect the detection beads from light. A lid was placed on top of the plate and incubated for 1 hour at room temperature, then the luminescence was read on a PerkinElmer Envision instrument.
As usually defined, the IC50 is the concentration that inhibits the measured activity by half. In turn, `Cc1ncc(NC(=O)c2ccnc(C(C)(C)C#N)c2)cc1-c1cc(N2CCOCC2)ncn1` [US10245267, Example 2] had an IC50 of 4.8 nM.

`Cc1ncc(NC(=O)c2ccnc(C(F)(F)F)c2)cc1-c1cnc(OC2CNC2)c(N2CCOCC2)c1` [US10245267, Example 325] came in with an IC50 of 300 nM.

For the compound `Cc1ncc(NC(=O)c2ccnc(C(F)(F)F)c2)cc1-c1cnc(C(C)(C)C#N)c(N2CCOCC2)c1` [US10245267, Example 326], the midpoint of inhibition, the IC50, lay at 3.7 nM.

Consider `Cc1ncc(NC(=O)c2ccnc(C(F)(F)F)c2)cc1-c1cnc(CS(C)(=O)=O)c(N2CCOCC2)c1` [US10245267, Example 327], for which the IC50 came out at 3.9 nM.

On to `CCOc1nnc(-c2cc(NC(=O)c3ccc(CN(C)CC)c(C(F)(F)F)c3)ccc2C)cc1N1CCOCC1` [US10245267, Example 576], for which the IC50 is 3.5 nM.

As for `Cc1ncc(NC(=O)c2ccc(C#N)c(C(F)(F)F)c2)cc1-c1cc(N2CCOCC2)c2nccn2n1` [US10245267, Example 877], the IC50 was determined as 6.5 nM.

In turn, `Cc1ncc(NC(=O)c2cccc(C(F)F)c2)cc1-c1cc(N2CCOCC2)c2nccn2n1` [US10245267, Example 880] had an IC50 of 3.2 nM.

As for `Cc1ncc(NC(=O)c2ccnc(C(C)(C)C#N)c2)cc1-c1cc(N2CCOCC2)c2nccn2n1` [US10245267, Example 881], 32.6 nM corresponded to half-maximal inhibition (IC50).

The values above are taken from BindingDB's records for patent US10245267 (Novartis, 2019).
